Reference: patent US20130122024A1, “NEW BINDER-DRUG CONJUGATES (ADCS) AND USE THEREOF” (Bayer Intellectual Property GmbH, priority 2011, published 2013)
Structures can show the parent of a compound that is named as a salt. Square brackets hold non-standard residues; d marks the D form. Peptide text beside a SMILES is read from it. * marks the point of attachment. X2 = CC(C)[C@@H](C(=O)*)N(C)CCCCCCN1C(=O)CC(SC[C@H](N)C(=O)O)C1=O; X1 = CC(C)[C@@H](C(=O)*)N(C)CCCCCC(=O)NCCCC[C@H](N)C(=O)O; Dolaproine = CO[C@@H]([C@@H]1CCCN1)[C@@H](C)C(=O)O; Dil = CC[C@H](C)[C@H](NC)[C@@H](CC(=O)O)OC; Oxazinan2yl(1,2) = C1CCN(*)OC1

Assays:
[1] = system: tubulin; test: Fluorescence-based microtubule (tubulin) polymerization assay; type: biochemical
Procedure: Tubulin polymerization was investigated using the “Fluorescence-based Microtubule Polymerisation Assay Kit” from Cytoskeleton (Denver, Colo., USA; order number: BK011). With this assay, GTP is added to unpolymerized tubulin, allowing polymerization to take place spontaneously. The assay is based on the binding of the fluorophore 4′,6-di-amidino-2-phenylindole (DAPI) to tubulin. Free and bound DAPI can be differentiated on the basis of different emission spectra.
[…] In addition to the buffer control, paclitaxel, with a polymerization-increasing effect, and vinblastin, with a polymerization inhibiting effect, were run additionally as assay controls. Measurement was carried out using 96-well plates with a half base area. The kinetics of the tubulin polymerization were monitored in a Fluorimeter at 37° C. for 1 hour. The excitation wavelength was 355 nm, and emission was monitored at 460 nm. For the region of linear increase within the first 10 minutes, a calculation was made of the change in fluorescence per minute (ΔF/min), which represents the polymerization rate of the microtubuli. The potency of the test substances was quantified on the basis of their respective reduction of the polymerization rate.
The reduction in the tubulin polymerization rate occurs in dependence on the concentration of the test substance added.

[2] = system: Caco-2 cells; test: Caco-2 flux assay for cell permeability; type: in vitro ADME; conditions: 2 hours, B to A
Procedure: The cell permeability of a substance can be investigated by means of in vitro testing in a flux assay using Caco-2 cells [M. D. Troutman and D. R. Thakker, Pharm. Res. 20 (8), 1210-1224 (2003)]. For this purpose, the cells were cultured for 15-16 days on 24-well filter plates. For the determination of permeation, the respective working example was applied in a HEPES buffer to the cells either apically (A) or basally (B) and incubated for 2 hours. After 0 hours and after 2 hours, samples were taken from the cis and trans compartments. The samples were separated by HPLC (Agilent 1200, Böblingen, Germany) using reverse phase columns. The HPLC system was coupled via a Turbo Ion Spray Interface to a Triple Quadropol mass spectrometer API 4000 (Applied Biosystems Applera, Darmstadt, Germany). The permeability was evaluated on the basis of a Papp value, which was calculated using the formula published by Schwab et al. [D. Schwab et al., J. Med. Chem. 46, 1716-1725 (2003)].

[3] = concentration of toxophore 1 μM
[4] = concentration of toxophore 10 μM

SMILES | Tubulin polymerization in the presence of toxophore in [%]. Tubulin polymerization rate at 1 μM MMAF set at 100% [1, 3] | Tubulin polymerization in the presence of toxophore in [%]. Tubulin polymerization rate at 1 μM MMAF set at 100% [1, 4] | Papp (B-A) [2]
CC[C@H](C)[C@@H]([C@@H](CC(=O)N1CCC[C@H]1[C@H](OC)[C@@H](C)C(=O)N[C@@H](Cc1c[nH]c2ccccc12)C(N)=O)OC)N(C)C(=O)[C@@H](NC(=O)[C@H](C(C)C)N(C)CCCC(=O)NNC(=O)CCCCCN1C(=O)CC(SC[C@H](N)C(=O)O)C1=O)C(C)C (stereo partly drawn) [Example 62, N-(4-{2-[6-(3-{[(2R)-2-Amino-2-carboxyethyl]sulphanyl}-2,5-dioxopyrrolidin-1-yl)hexanoyl]hydrazino}-4-oxobutyl)-N-methyl-L-valyl-N-[(3R,4S,5S)-1-{(2S)-2-[(1R,2R)-3-{[(2S)-1-amino-3-(1H-indol-3-yl)-1-oxopropan-2-yl]amino}-1-methoxy-2-methyl-3-oxopropyl]pyrrolidin-1-yl}-3-methoxy-5-methyl-1-oxoheptan-4-yl]-N-methyl-L-valinamide] | 88% | 25% | 2 nm/s
CC[C@H](C)[C@@H]([C@@H](CC(=O)N1CCC[C@H]1[C@H](OC)[C@@H](C)C(=O)N[C@@H](Cc1c[nH]c2ccccc12)C(=O)O)OC)N(C)C(=O)[C@@H](NC(=O)[C@H](C(C)C)N(C)CCCCCCN1C(=O)CC(SC[C@H](N)C(=O)O)C1=O)C(C)C (stereo partly drawn) [Example 66, N-[6-(3-{[(2R)-2-Amino-2-carboxyethyl]sulphanyl}-2,5-dioxopyrrolidin-1-yl)hexyl]-N-methyl-L-valyl-N-[(3R,4S,5S)-1-{(2S)-2-[(1R,2R)-3-{[(1S)-1-carboxy-2-(1H-indol-3-yl)ethyl]amino}-1-methoxy-2-methyl-3-oxopropyl]pyrrolidin-1-yl}-3-methoxy-5-methyl-1-oxoheptan-4-yl]-N-methyl-L-valinamide] (X2-V[Dil][Dolaproine]W-OH) | – | 25% | 1 nm/s
CC[C@H](C)[C@@H]([C@@H](CC(=O)N1CCC[C@H]1[C@H](OC)[C@@H](C)C(=O)N[C@@H](Cc1c[nH]c2ccccc12)C(=O)N1CCCCO1)OC)N(C)C(=O)[C@@H](NC(=O)[C@H](C(C)C)N(C)CCCCCC(=O)NCCCC[C@H](N)C(=O)O)C(C)C [Example 105, N-(6-{[(5S)-5-Amino-5-carboxypentyl]amino}-6-oxohexyl)-N-methyl-L-valyl-N-[(3R,4S,5S)-1-{(2S)-2-[(1R,2R)-3-{[(2S)-3-(1H-indol-3-yl)-1-(1,2-oxazinan-2-yl)-1-oxopropan-2-yl]amino}-1-methoxy-2-methyl-3-oxopropyl]pyrrolidin-1-yl}-3-methoxy-5-methyl-1-oxoheptan-4-yl]-N-methyl-L-valinamide trifluoroacetate] (X1-V[Dil][Dolaproine]W-{Oxazinan2yl(1,2)}) | 45% | 1% | 2 nm/s
CC[C@H](C)[C@@H]([C@@H](CC(=O)N1CCC[C@H]1[C@H](OC)[C@@H](C)C(=O)N[C@@H](Cc1c[nH]c2ccccc12)C(=O)NCc1ccccc1)OC)N(C)C(=O)[C@@H](NC(=O)[C@H](C(C)C)N(C)CCCC(=O)NNC(=O)CCCCCN1C(=O)CC(SC[C@H](N)C(=O)O)C1=O)C(C)C (stereo partly drawn) [Example 68, N-(4-{2-[6-(3-{[(2R)-2-Amino-2-carboxyethyl]sulphanyl}-2,5-dioxopyrrolidin-1-yl)hexanoyl]hydrazino}-4-oxobutyl)-N-methyl-L-valyl-N-[(3R,4S,5S)-1-{(2S)-2-[(1R,2R)-3-{[(2S)-1-(benzylamino)-3-(1H-indol-3-yl)-1-oxopropan-2-yl]amino}-1-methoxy-2-methyl-3-oxopropyl]pyrrolidin-1-yl}-3-methoxy-5-methyl-1-oxoheptan-4-yl]-N-methyl-L-valinamide] | – | 45% | 7 nm/s
